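How tested: cells in 96-well plates exposed to compound for 48 hours at five concentrations. GI50 is the concentration that inhibits growth by half.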 Active and inactive are the calls of the source. Cut-off read from the data, not from the text of the source: active = GI50 up to about 1.1 µM and inactive = higher.

Some test systems named below: HCT-116; NCI-H23; BT-549; UACC-257; SF-295; CAKI-1; CCRF-CEM; MDA-MB-231; SK-MEL-2; HOP-92; UO-31; SF-268; RPMI-8226; HCT-15; A549; Hs-578T; SW-620; MOLT-4; Malme-3M; OVCAR-4.
Common to all, as to assay: growth of human tumour cells (NCI), 48 h

Take `CC1(C)OC2C(CO)OC(n3ccc(=O)[nH]c3=O)C2O1` (centres undefined): the GI50 in the experiment on HCT-116, with NCI-H23, in the experiment with BT-549, in the experiment on UACC-257, in the experiment with SF-295 and in the experiment on CAKI-1 was > 100 µM (inactive) throughout. Moreover, the GI50 with CCRF-CEM was > 100 µM (inactive); in the experiment on MDA-MB-231 it was > 100 µM (inactive); in the experiment with SK-MEL-2, > 100 µM (inactive); in the experiment on HOP-92, 83.2 µM (inactive); in the experiment on UO-31, > 100 µM (inactive); in the experiment on SF-268, > 100 µM (inactive). Also, the GI50 is > 100 µM (inactive) with RPMI-8226; over 100 µM in the experiment with HCT-15; > 100 µM (inactive) in the experiment on A549; > 100 µM (inactive) in the experiment on Hs-578T; > 100 µM (inactive) in the experiment on SW-620; > 100 µM (inactive) with MOLT-4.

Take `Cc1ccc(S(=O)(=O)n2cnc(CC(NC(=O)C3CCC(=O)N3C(=O)OCc3ccccc3)C(=O)N3CCCC3C(=O)NN)c2)cc1` (centres undefined): the GI50 in the experiment with HCT-116, in the experiment with NCI-H23, in the experiment on Malme-3M, in the experiment with BT-549, in the experiment on UACC-257 and in the experiment with MDA-MB-231 was > 100 µM (inactive) throughout. Also, the GI50 with SK-MEL-2 was > 100 µM (inactive); in the experiment on HOP-92, > 100 µM (inactive); in the experiment on UO-31, 1.02 µM (active); in the experiment with RPMI-8226, > 100 µM (inactive); in the experiment with HCT-15 it was over 100 µM; in the experiment on A549, > 100 µM (inactive). Moreover, the GI50 with Hs-578T, in the experiment on SW-620 and in the experiment on MOLT-4 was > 100 µM (inactive) in each case.

On to `CC1(C)C2CCC1C(=O)[C@@]1(C=CC(=O)CC1)C2` (some centres undefined), for which the GI50 in the experiment on HCT-116, in the experiment with NCI-H23, in the experiment on Malme-3M, with BT-549, in the experiment with UACC-257 and in the experiment on SF-295 was > 100 µM (inactive) each time. Moreover, the GI50 in the experiment with CCRF-CEM, in the experiment with MDA-MB-231, in the experiment on HOP-92, with UO-31, in the experiment with SF-268 and with RPMI-8226 was > 100 µM (inactive) throughout. The GI50 in the experiment on HCT-15 was over 100 µM; in the experiment on A549, > 100 µM (inactive); with Hs-578T, > 100 µM (inactive); with OVCAR-4, > 100 µM (inactive); in the experiment on SW-620 it was > 100 µM (inactive); in the experiment with MOLT-4, > 100 µM (inactive).

With `CC(C)=NOC(=O)OC[C@H]1O[C@@H](n2cnc3c(N)ncnc32)C(O)C1O` (some centres undefined), the GI50 with NCI-H23, in the experiment with Malme-3M, in the experiment on BT-549, in the experiment with SF-295, with CCRF-CEM and with MDA-MB-231 was > 100 µM (inactive) each time. Moreover, the GI50 with SK-MEL-2 was > 100 µM (inactive); in the experiment on UO-31, > 100 µM (inactive); in the experiment with SF-268 it was > 100 µM (inactive); in the experiment on RPMI-8226, 52 µM (inactive); in the experiment on HCT-15 it was 72.1 µM; in the experiment on A549, > 100 µM (inactive). For the same compound, the GI50 with Hs-578T was > 100 µM (inactive); in the experiment with OVCAR-4, > 100 µM (inactive); with SW-620, 89.3 µM (inactive); in the experiment on MOLT-4, > 100 µM (inactive).

Turning to `O=Cc1coc2ccccc2c1=O`, the GI50 in the experiment with HCT-116 was 16.5 µM (inactive); with NCI-H23, 21.9 µM (inactive); in the experiment with Malme-3M it was 9.68 µM (inactive); in the experiment on BT-549 it was 15.6 µM (inactive); in the experiment with UACC-257, 18.7 µM (inactive); in the experiment with SF-295 it was 17.9 µM (inactive). For the same compound, the GI50 with CAKI-1 is 19.2 µM (inactive); in the experiment with CCRF-CEM, 18.2 µM (inactive); in the experiment with MDA-MB-231 it was 18.5 µM (inactive); with UO-31 it was 11.9 µM (inactive); in the experiment on SF-268 it was 20.8 µM (inactive); in the experiment on RPMI-8226 it was 15.3 µM (inactive). Further, the GI50 in the experiment on HCT-15 was 14.3 µM; in the experiment with A549, 25.1 µM (inactive); in the experiment with Hs-578T it was 18.2 µM (inactive); in the experiment on OVCAR-4 it was 13.8 µM (inactive); in the experiment with SW-620, 18.5 µM (inactive); in the experiment with MOLT-4, 24.9 µM (inactive).

On to `CCCCNc1nc(N)nc(Nc2ccc(Br)cc2)c1N=O`, for which the GI50 was 84.9 µM (inactive) in the experiment with HCT-116; > 100 µM (inactive) in the experiment with NCI-H23; > 100 µM (inactive) in the experiment on Malme-3M; 44.7 µM (inactive) in the experiment on BT-549; > 100 µM (inactive) in the experiment with UACC-257; 42.1 µM (inactive) with CCRF-CEM. For the same compound, the GI50 was 41.8 µM (inactive) in the experiment with MDA-MB-231; > 100 µM (inactive) in the experiment on SK-MEL-2; 28.1 µM (inactive) in the experiment with UO-31; > 100 µM (inactive) with SF-268; 52 µM (inactive) in the experiment with RPMI-8226; 78 µM with HCT-15. The GI50 in the experiment with A549 was 33.7 µM (inactive); in the experiment on Hs-578T, 27.5 µM (inactive); with SW-620 it was > 100 µM (inactive); with MOLT-4 it was 18.8 µM (inactive).

On to `Oc1ccccc1C1=NOC(c2ccc(C(F)(F)F)cc2)C1` (centres undefined), for which the GI50 in the experiment with HCT-116, in the experiment with NCI-H23, in the experiment on Malme-3M, with BT-549, in the experiment with UACC-257 and in the experiment with SF-295 was > 50 µM (inactive) each time. In addition, the GI50 with CAKI-1 was > 50 µM (inactive); in the experiment on CCRF-CEM, > 50 µM (inactive); in the experiment with MDA-MB-231, > 41.6 µM (inactive); in the experiment with SK-MEL-2 it was > 46.1 µM (inactive); in the experiment with SF-268 it was > 50 µM (inactive); in the experiment on RPMI-8226 it was > 50 µM (inactive). Also, the GI50 in the experiment with A549, in the experiment with Hs-578T, in the experiment on OVCAR-4, in the experiment with SW-620 and in the experiment with MOLT-4 was > 50 µM (inactive) throughout.

For the compound `COc1cc2c(C)cc(O)cc2c2cc(O)c(C)cc12`, the GI50 was 10.7 µM (inactive) in the experiment on HCT-116; 11.5 µM (inactive) in the experiment on NCI-H23; 12.7 µM (inactive) in the experiment with BT-549; 12.5 µM (inactive) with UACC-257; 12.9 µM (inactive) in the experiment with SF-295; 11.7 µM (inactive) with CAKI-1. For the same compound, the GI50 is 2.78 µM (inactive) in the experiment with CCRF-CEM; 9.66 µM (inactive) in the experiment with MDA-MB-231; 14.8 µM (inactive) in the experiment on SK-MEL-2; 12 µM (inactive) with HOP-92; 9.66 µM (inactive) in the experiment on UO-31; 13.7 µM (inactive) in the experiment on SF-268. For the same compound, the GI50 in the experiment on RPMI-8226 is 1.91 µM (inactive); in the experiment with HCT-15 it was 8.55 µM; in the experiment on A549 it was 12.9 µM (inactive); in the experiment on Hs-578T it was 19.1 µM (inactive); with OVCAR-4, 11.3 µM (inactive); in the experiment on SW-620, 10.2 µM (inactive). Further, the GI50 with MOLT-4 was 5.83 µM (inactive).

In the case of `Cc1ccc2c(O)cc(-c3cc4ccccc4s3)nc2n1`, the GI50 was > 100 µM (inactive) with HCT-116; > 56.2 µM (inactive) in the experiment with NCI-H23; > 48.1 µM (inactive) in the experiment with Malme-3M; > 100 µM (inactive) in the experiment on BT-549; > 100 µM (inactive) with UACC-257; 40.1 µM (inactive) with SF-295. Moreover, the GI50 is 55 µM (inactive) with CAKI-1; > 100 µM (inactive) in the experiment with CCRF-CEM; > 100 µM (inactive) in the experiment with MDA-MB-231; > 100 µM (inactive) in the experiment on SK-MEL-2; 0.0353 µM (active) in the experiment with UO-31; 43.2 µM (inactive) in the experiment with SF-268. The GI50 in the experiment on RPMI-8226 was 4.33 µM (inactive); in the experiment with HCT-15, over 70.3 µM; in the experiment on A549, > 100 µM (inactive); with Hs-578T, > 41.6 µM (inactive); with OVCAR-4, > 75 µM (inactive); in the experiment with SW-620, > 100 µM (inactive). Besides, the GI50 with MOLT-4 is > 100 µM (inactive).

As for `CCOC(=O)C1CN(C2CC2)CCC1=O` (centres undefined), the GI50 in the experiment on HCT-116, with NCI-H23, in the experiment with Malme-3M, in the experiment on BT-549, in the experiment with UACC-257 and in the experiment with SF-295 was > 100 µM (inactive) throughout. For the same compound, the GI50 in the experiment with CAKI-1, in the experiment on CCRF-CEM, with MDA-MB-231, in the experiment with SK-MEL-2, in the experiment on UO-31 and in the experiment on SF-268 was > 100 µM (inactive) each time. The GI50 is > 100 µM (inactive) with RPMI-8226; over 100 µM with HCT-15; > 100 µM (inactive) in the experiment with A549; > 100 µM (inactive) in the experiment with Hs-578T; > 100 µM (inactive) in the experiment with OVCAR-4; > 100 µM (inactive) in the experiment with SW-620. Besides, the GI50 with MOLT-4 is > 100 µM (inactive).

With `CCn1c(O)c(C(=O)NC(C)c2ccc([N+](=O)[O-])cc2)c(=O)n(CC)c1=S` (centres undefined), the GI50 in the experiment on HCT-116 was 1.64 µM (inactive); in the experiment with NCI-H23, 1.77 µM (inactive); in the experiment with BT-549, 2.21 µM (inactive); in the experiment on UACC-257 it was 3.85 µM (inactive); in the experiment on SF-295, 1 µM (active); in the experiment with CAKI-1, 2.55 µM (inactive). In addition, the GI50 is 1.59 µM (inactive) with CCRF-CEM; 2.91 µM (inactive) with MDA-MB-231; 1.02 µM (active) with SK-MEL-2; 2.75 µM (inactive) with HOP-92; 1.92 µM (inactive) with UO-31; 3.92 µM (inactive) in the experiment with SF-268. In addition, the GI50 is 1.43 µM (inactive) with RPMI-8226; 2.58 µM in the experiment with HCT-15; 1.52 µM (inactive) in the experiment on A549; 2.52 µM (inactive) in the experiment on Hs-578T; 1.48 µM (inactive) in the experiment on OVCAR-4; 2.43 µM (inactive) with SW-620. The GI50 in the experiment on MOLT-4 was 2.05 µM (inactive).
